Source: article PMC11375813 (ACS Omega, 2024)
Several values for one entry are separate records, joined by “and”; a condition that tells them apart may be missing. Equal values may be shown once. Read-outs that look alike come from different tables or passages of the source.

Experiments:
[1] = biological target: T1, human plasma BChE (Homo sapiens, UniProt P06276); assay: biochemical; details: for Ki: inhibition constant (Ki) against human BChE
T1 construct: 25 μL/well of a 1:450 diluted solution of pooled human plasma; from tissue; host or cells: pooled human plasma, diluted 1:450, BChE not purified
T1 sequence (P06276 29-602): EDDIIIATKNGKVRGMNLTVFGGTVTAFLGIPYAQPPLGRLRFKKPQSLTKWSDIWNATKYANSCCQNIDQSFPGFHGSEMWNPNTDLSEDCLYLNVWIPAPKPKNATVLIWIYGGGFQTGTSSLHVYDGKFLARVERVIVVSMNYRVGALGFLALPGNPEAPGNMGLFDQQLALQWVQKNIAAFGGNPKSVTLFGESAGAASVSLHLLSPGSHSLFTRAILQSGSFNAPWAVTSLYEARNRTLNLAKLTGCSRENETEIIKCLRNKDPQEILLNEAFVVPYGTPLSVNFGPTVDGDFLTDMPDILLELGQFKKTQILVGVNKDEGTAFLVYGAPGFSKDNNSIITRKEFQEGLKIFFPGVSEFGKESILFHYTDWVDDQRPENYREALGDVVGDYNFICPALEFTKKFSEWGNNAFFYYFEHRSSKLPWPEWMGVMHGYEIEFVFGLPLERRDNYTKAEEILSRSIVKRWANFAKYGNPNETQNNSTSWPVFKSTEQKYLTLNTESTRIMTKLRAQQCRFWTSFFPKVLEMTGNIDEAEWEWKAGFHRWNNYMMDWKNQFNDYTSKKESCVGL
Source text: (§1) The screening of the in silico hits toward the BChE and AChE enzymatic activity was done by an adapted high-throughput assay version of Ellman′s colorimetric assay.[59],[60] The reagents, butyrylthiocholine iodide (BTC), acetylthiocholine iodide (ATC), and 5,5′-dithiobis(2-nitrobenzoic acid) (DTNB), were purchased from Sigma-Aldrich (St. Louis, MO). The modified assay details are as previously described.[6],[44] The main modification concerned the high-throughput adaptation of the assay for use in 384-well plates. Briefly, 25 μL/well of a 1:450 diluted solution of pooled human plasma and 1:768 diluted (3.5 ng/mL final concentration) purified recombinant human AChE protein (Sigma, Cat no. C1682) was used for measurement of the BChE and AChE activity, respectively. These enzymes’ concentrations were used since they are representative of the activity of these enzymes in the human cerebrospinal fluid (CSF).
(§2) For BChE, the final BTC concentrations in the wells ranged from 5 mM to […], which were prepared as a 2-fold serial dilution. For AChE, the final ATC concentrations in the wells ranged from 0.5 mM to […], prepared as a 2-fold serial dilution series.
(§3) In all enzyme inhibition kinetic assays, the concentrations of AChE and BChE were chosen so that the enzyme activities were representative of the activity of these enzymes in the human CSF, which is about 20 and 10 nmol/min/mL CSF for AChE and BChE, respectively.[49]
(§4) For the enzyme inhibition kinetic analyses, the order of steps was as follows: (1) 25 μL/well of the compound or the vehicle control was added in quadruplicates, with respect to each compound concentration, in a 384-well plate. (2) Then, 25 μL of each substrate concentration was added to the wells in quadruples. (3) The reaction was then started by adding 25 μL of a master mix to all wells, containing the enzyme working solution and DTNB. The final concentration of the enzyme and DTNB as well as the buffer composition was the same as mentioned above for the screening assay. Then, the plate was immediately placed in the microplate spectrophotometer reader (Infinite M1000, Tecan) and the changes in the absorbance were continuously monitored at 2 min intervals for 15–20 min at 412 nm wavelength. The rate of the enzyme activity was extracted as the slope of the initial linear part of the kinetic reaction curves.
The data were then transferred and processed using GraphPad Prism 9 analysis software.[15] The half-maximal inhibitory concentration (IC50) values were calculated by plotting the percentage enzyme activity versus the log concentrations of the compound. The inhibitory constant (Ki) values were determined from the enzyme inhibition kinetic analyses using the nonlinear regression function in the software. A statistical comparison of the ligand’s mode of activity was also done using GraphPad software between the competitive equation versus the mixed-competitive, noncompetitive, and uncompetitive equations.[61] A competitive mode of action means that the inhibitor reversibly binds to the substrate′s binding site. Thus, the inhibition of the enzyme is modifiable by a high concentration of the substrate via displacement. […] When the behavior of a ligand is not fully uniform, and the mixed-competitive fitting equation is statistically the best fitting option, the ligand is called a mixed-competitive one. This is determined through a general equation that includes the other three modes of actions. Through this equation, the software provides an additional parameter, called α, which determines the mechanism of action of the inhibitor. For instance, when α is equal to one, the inhibitor′s affinity for the free enzyme and the enzyme–substrate complex is equal, i.e., the inhibitor behaves mainly noncompetitively. […] When α is very large, the inhibitor behaves mainly as a competitive ligand. A very small α (but not <0) is indicative of an uncompetitive mode of action.[61]

[2] = tested on: BChE; set-up: method as in PMID 17196712, PMID 16868793, PMID 20205672, PMID 19199870; details: at therapeutic concentrations; cited from earlier work
[3] = biological target: T1, human plasma BChE; assay: biochemical; assay type: biochemical; details: single concentration 100 μM
Experimental: (§5) All of the drugs were tested at a final concentration of 100 μM.
as §1
(§6) To the control wells, the vehicle solution was added to get the reference enzyme activity (100%). (2) Then, 25 μL of a working solution of BChE or AChE was added to all wells. The plate was then incubated for 10–30 min at room temperature. (3) The reaction was then started by adding 25 μL of a cocktail mix prepared in Na/K phosphate buffer to all wells, containing DTNB (final concentration 0.4 mM) and BTC (final concentration 1 mM) or ATC (final concentration 0.5 mM). The changes in the absorbance were monitored at 412 nm wavelength for 15–20 min at 1 min intervals, using a microplate spectrophotometer reader (Infinite M1000, Tecan). The rate of the enzyme activity was determined from the slope of the linear part of the kinetic reaction curves. In all steps, the working solution concentrations were 3 times of the final concentrations of each component in the final volume of 75 μL in each well. The final screening concentration of the compounds was 100 μM. […]

[4] = biological target: T2, human AChE (Homo sapiens, UniProt P22303); assay: In vitro single-concentration screening, AChE activity (adapted Ellman assay); assay type: biochemical; details: read-out: inhibition of AChE activity
T2 construct: purchased Sigma C1682
T2 sequence (P22303 32-614): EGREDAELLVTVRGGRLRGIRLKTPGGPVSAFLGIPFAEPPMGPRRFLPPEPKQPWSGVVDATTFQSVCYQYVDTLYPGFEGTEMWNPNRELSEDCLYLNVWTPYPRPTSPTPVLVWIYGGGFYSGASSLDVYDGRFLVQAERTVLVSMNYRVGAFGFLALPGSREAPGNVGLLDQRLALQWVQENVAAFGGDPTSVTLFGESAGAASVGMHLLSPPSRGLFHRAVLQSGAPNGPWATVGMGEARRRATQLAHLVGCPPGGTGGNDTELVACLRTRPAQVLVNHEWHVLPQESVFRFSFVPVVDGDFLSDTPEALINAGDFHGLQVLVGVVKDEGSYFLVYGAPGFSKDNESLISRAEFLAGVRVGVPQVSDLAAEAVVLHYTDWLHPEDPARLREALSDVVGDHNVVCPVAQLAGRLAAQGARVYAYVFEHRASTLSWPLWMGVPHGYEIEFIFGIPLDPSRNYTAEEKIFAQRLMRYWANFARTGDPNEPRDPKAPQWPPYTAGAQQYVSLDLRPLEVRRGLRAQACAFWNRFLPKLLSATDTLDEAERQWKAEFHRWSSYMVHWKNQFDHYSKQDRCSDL
Experimental: as §5, §1, §6

[5] = tested on: human recombinant ChAT; assay: In vitro single-concentration screening against choline acetyltransferase; assay type: biochemical; details: single concentration 100 μM
Experimental: as §5

[6] = biological target: T2, human AChE; assay: IC50 and enzyme inhibition kinetic analyses on AChE; assay type: biochemical
Source text: as §1, §2, §3, §4
The data were then transferred and processed using GraphPad Prism 9 analysis software.[15] The half-maximal inhibitory concentration (IC50) values were calculated by plotting the percentage enzyme activity versus the log concentrations of the compound. The inhibitory constant (Ki) values were determined from the enzyme inhibition kinetic analyses using the nonlinear regression function in the software. A statistical comparison of the ligand’s mode of activity was also done using GraphPad software between the competitive equation versus the mixed-competitive, noncompetitive, and uncompetitive equations.[61] A competitive mode of action means that the inhibitor reversibly binds to the substrate′s binding site. Thus, the inhibition of the enzyme is modifiable by a high concentration of the substrate via displacement. […] In the case of an uncompetitive mode of activity, the inhibitor has an affinity to the enzyme–substrate complex, but not the free enzyme. When the behavior of a ligand is not fully uniform, and the mixed-competitive fitting equation is statistically the best fitting option, the ligand is called a mixed-competitive one. This is determined through a general equation that includes the other three modes of actions. Through this equation, the software provides an additional parameter, called α, which determines the mechanism of action of the inhibitor. For instance, when α is equal to one, the inhibitor′s affinity for the free enzyme and the enzyme–substrate complex is equal, i.e., the inhibitor behaves mainly noncompetitively. […] When α is very large, the inhibitor behaves mainly as a competitive ligand. […]

[7] = Plasma / in vivo drug concentrations in humans (literature pharmacokinetics); details: using a molecular weight of 325.39
[8] = biological target: norepinephrine uptake carrier; details: read-out: Ki, norepinephrine uptake carrier; radioligand binding; cited from earlier work
[9] = tested on: muscarinic, histaminergic, α1-adrenergic, serotonergic, dopaminergic, and opioid receptors; details: radioligand binding; cited from earlier work
[10] = cited from earlier work
[11] = tested on: human BChE; details: cited from earlier work
[12] = cited from earlier work; remark: listed apart in the source
[13] = high substrate range, up to 5 mM
[14] = micromolar substrate range (up to 0.5 mM)
[15] = human, multiple doses of 30 mg twice daily

For `CCN(CC)C(C)CN1c2ccccc2Sc2ccccc21` (stereo not drawn) [ethopropazine], the “mode of inhibition of BChE” value [1, 13] was “mixed-competitive”, the Ki [1, 13] was 0.15 µM and the Ki ([1]; low substrate concentrations (up to 0.5 mM)) was 0.154 µM. The Ki [1, 14] was about 0.155 µM and the “mode of inhibition of BChE” value [1, 14] was “Mixed-competitive inhibitor”.

In the case of `COc1ccc2c3c1O[C@H]1C[C@@H](O)C=C[C@@]31CCN(C)C2` [galantamine], the “inhibitory effect on BChE” value [2] is given as “completely devoid of any inhibitory effect”.

In the case of `CN(C)CCCC1(c2ccc(F)cc2)OCc2cc(C#N)ccc21` (stereo not drawn) [citalopram], the inhibition at 100 µM [3] is reported as about 55%, the inhibition at 100 µM [4] is reported as about 60% and the “effect on the activity of human ChAT” value [5] is reported as “neither duloxetine nor citalopram/escitalopram affected the activity”. The “BChE potency ratio Ki Escit / Ki Cit” value ([1]; 203/42) was 4.8, the “mode of inhibition of BChE” value [1, 13] was “mixed-competitive” and the Ki [1, 13] was 42 µM. For the same compound, the Ki [6] was 58.8 µM, the “mode of inhibition of AChE” value ([6]; enzyme inhibition kinetics) was “noncompetitive” and the “molar concentration (maximum, from ng/mL)” value [7] was “at most 0.86 μM”.

With `CNCC[C@H](Oc1cccc2ccccc12)c1cccs1` [duloxetine] the “inhibition of plasma BChE activity” value [3] was “fully inhibited”, the inhibition at 100 µM [4] was about 35% and the “effect on the activity of human ChAT” value [5] was “neither duloxetine nor citalopram/escitalopram affected the activity”. The IC50 [1] was 9.7 µM, the “times as potent as physostigmine in inhibiting BChE” value ([1]; Ki 210 nM vs […] nM) was 4 times and the “mode of inhibition of BChE” value [1, 13] was “competitive”. For the same compound, the Ki [1, 13] was ~0.351 µM and 0.35 µM, the Ki [1, 14] was 0.21 µM and the “mode of inhibition of BChE” value [1, 14] was “competitive”. The “mode of inhibition of AChE” value ([6]; enzyme inhibition kinetics) was “mixed-competitive”, the Ki ([6]; inhibition constant (Ki) against human AChE, nonlinear regression, enzyme inhibition kinetics) was 65.5 µM and ~56.5 µM and the Ki [8] was 0.0021 µM. The “affinity for muscarinic, histaminergic, α1-adrenergic, serotonergic, dopaminergic, and opioid receptors” value [9] was “lacks the pharmacologically relevant affinity”, the “maximum steady-state plasma concentration” value [10, 15] was 142 nM and the “minimum steady-state plasma concentration” value [10, 15] was 84 nM. For the same compound, the “normal in vivo concentration range in human patients” value ([10]; normal dosages) was 100 to 400 nM, the Cmax ([10]; read-out: plasma Cmax, human, single dose of 30–90 mg) was 70 to 180 nM and the “inhibition of human BChE” value ([11]; 10 μM) was “over 70%”. The IC50 ([11]; read-out: IC50 against human BChE, substrate and its concentration not reported) was 1.2 µM, the “effect on cognition in the elderly” value ([12]; 8-week double-blind placebo-controlled trial) was “improved cognition” and the “cognitive effect in patients with major depressive disorders” value ([12]; 12-week study) was “significant cognitive improvements across several domains”. The “risk of developing dementia compared to citalopram-treated patients” value ([12]; pharmacoepidemiologic study, patients with depression) was “significantly lower risk of developing dementia”.

For `COc1cc2c(cc1OC)C(=O)C(CC1CCN(Cc3ccccc3)CC1)C2` (stereo not drawn) [donepezil], the “inhibitory effect on BChE” value [2] is listed as “completely devoid of any inhibitory effect”.

With `CNC(=O)Oc1ccc2c(c1)[C@]1(C)CCN(C)[C@@H]1N2C` [physostigmine] the “mode of inhibition of BChE” value [1, 13] was “Competitive inhibitor”.

For `CN(C)CCC[C@@]1(c2ccc(F)cc2)OCc2cc(C#N)ccc21` [escitalopram], the inhibition at 100 µM [3] was about 10%, the inhibition at 100 µM [4] was about 60% and the “effect on the activity of human ChAT” value [5] was “neither duloxetine nor citalopram/escitalopram affected the activity”. The “mode of inhibition of BChE” value [1, 13] was “mixed-competitive”, the Ki [1, 13] was 203 µM and the Ki [6] was 32.8 µM. The “AChE potency ratio Ki Cit / Ki Escit” value ([6]; 59/33) was 1.8, the “mode of inhibition of AChE” value ([6]; enzyme inhibition kinetics) was “mixed-competitive” and the “molar concentration (maximum, from ng/mL)” value [7] was “at most 0.86 μM”.
